“And” between values parts separate entries of the source, which are not always exact repeats. Equal values may be shown once. “Also recorded” adds a separate entry of the source. Read-outs that look alike come from different tables or passages of the source.
Legend:
[1] = target: FLNA pentapeptide of SEQ ID NO: 1 (Bn-VAKGL) (Homo sapiens, UniProt P21333); assay: FITC-NLX-based FLNA screening assay (inhibition of FITC-naloxone binding to Bn-VAKGL); details: for inhibition at 0.01 µM: read-out: Percent inhibition of FITC-NLX binding, 0.01 μM compound; for inhibition at 0.1 µM: read-out: Percent inhibition of FITC-NLX binding, 0.1 μM compound
kappa-opioid receptor = kappa-opioid receptor (Homo sapiens, UniProt P41145); details: cited from earlier work
α7nAChR-FLNA complex = target: T1, α7nAChR-FLNA complex (Rattus norvegicus, UniProt A0A8I5ZV49); assay: Aβ42-induced α7nAChR-FLNA association in frontal cortical synaptosomes (anti-FLNA immunoprecipitation, Western blot); assay type: biochemical; details: compound simultaneous with 100 nM Aβ42; vs Aβ42 alone
T1 construct: from tissue; host or cells: rat frontal cortex synaptosomes
Experimental: FIG. 2, in two panels as FIG. 2A and FIG. 2B, illustrates high-affinity FLNA-binding compounds reduce α7nAChR-FLNA association as shown by Western blots. Frontal cortical synaptosomes from 2-month-old rats (n=4) were treated with 0.1 or 1 nM concentrations of potential FLNA-binding compounds [A0040, A0068, B0055, C0137M, C0138M and (+)-naloxone (+NLX)] either simultaneously (Sim) with or 10 minutes prior (10′ pr) to Aβ42 and were analyzed for their α7nAChR-FLNA complex contents. The α7nAChR-FLNA complexes in the solubilized synaptosomes were immunoprecipitated with immobilized anti-FLNA and the α7nAChR and FLNA levels in the anti-FLNA immunoprecipitates determined by Western blotting FIG. 2A and quantified by densitometry (FIG. 2B). n=3. Data are means±SEM. […] vs. Aβ42 alone. Data for 0.1 nM simultaneous admixture are shown in diagonal hatching; data from 1 nM simultaneous admixture are shown in cross-hatching; data from 0.1 nM 10 minutes prior to Aβ42 are shown in horizontal hatching; and data from 1 nM admixture 10 minutes prior Aβ42 are shown with vertical hatching. The letter designation “M” that accompanies many of the “C-series” compounds is omitted from FIG. 2, the remaining figures and most discussions of the figures and compounds hereinafter for ease in expression. […]

ERK2 = assay: Aβ42-induced ERK2 activation (pERK2) in synaptosomes; assay type: biochemical, rat; details: 0.1 and 1 nM, simultaneous treatment
Experimental: FIG. 3, in two panels as FIG. 3A and FIG. 3B, illustrates that FLNA-binding compounds reduce Aβ-induced α7nAChR-mediated ERK2 signaling. In the same treated synaptosomes used in FIG. 2, levels of phosphorylated (activated) ERK2 (pERK2) were measured in immunoprecipitates of ERK2. Aβ42 strongly activated extracellular signal-regulated kinase 2 [ERK2; also known as mitogen-activated protein kinase 1 (MAPK1)], and all compounds studied reduced this activation with 10-minutes of pretreatment. […] Immunoprecipitates were determined by Western blotting (FIG. 3A) and quantified by densitometry (FIG. 3B). n=3. Data are means±SEM. […] vs. Aβ42 alone. Hatching is as in FIG. 2.
(§1) Synaptosomes were exposed to 100 nM Aβ42 for 30 minutes, and with […] compounds added either simultaneously or 10 minutes earlier. Controls were a vehicle (no Aβ42) and an Aβ42 alone condition.
To assess Aβ42 signaling via α7nAChR after compound administration, levels of phosphorylated ERK2 were measured in the same synaptosome preparations treated with Aβ42 and the above compounds using Western blots (FIG. 3A). Phosphorylation of ERK2 indicates its activation, which leads to tau hyperphosphorylation. Compared to the control condition, Aβ42 strongly activates ERK2. This activation is suppressed by all six compounds at 0.1 and 1 nM with 10 minute pretreatment, and also by Compound B0055 and (+)NLX with simultaneous treatment (FIG. 3B).

delta-opioid receptor = delta-opioid receptor (Homo sapiens, UniProt P41143); details: cited from earlier work
FLNA [2] = target: T2, FLNA (Homo sapiens, UniProt P21333); assay: Inhibition of [3H]NLX binding to membranes from FLNA-expressing A7 cells; details: for IC50: [3H]NLX binding, A7 cell membranes, Example 3, six studies, two-site fit
T2 construct: rather than the full protein from a cell membrane preparation; host or cells: A7 cells (membranes)

FLNA [3] = target: T2, FLNA; assay: Inhibition of FITC-NLX binding to FLNA in membranes of A7 cells; details: for IC50: FITC-NLX in place of [3H]NLX
Text: 3(2):e1554 (2008), FIG. 3. FIG. 1B is a similar plot obtained from the use of FITC-labeled NLX (FITC-NLX) in place of the radio-labeled material.

FLNA [4] = target: T2, FLNA; details: [3H]NLX binding, A7 cell membranes, Wang et al. 2008/2009, cited from earlier work
mu opioid receptor (MOR) = mu opioid receptor (MOR) (Homo sapiens, UniProt P35372); details: cited from earlier work
tau protein = assay: Aβ42-induced tau phosphorylation at S202, T231 and T181 in synaptosomes; assay type: biochemical, rat
Experimental: FIG. 4, in four panels as FIG. 4A, FIG. 4B, FIG. 4C and FIG. 4D, illustrate that FLNA-binding compounds reduce tau phosphorylation at all three hyperphosphorylation sites. […] The three phosphoepitopes of tau were detected in immunoprecipitates using specific antibodies in Western blots. […] Immunoprecipitates were determined by Western blotting (FIG. 4A) and quantified by densitometry (FIG. 4B, FIG. 4C and FIG. 4D). Data are means±SEM. […] vs. Aβ42 alone. Hatching is as in FIG. 2.
as §1
Next assessed was whether the FLNA-binding compounds also decrease hyperphosphorylation of tau, a downstream effect of Aβ42 binding to α7nAChR and ERK2 activation. The three primary phosphorylation sites on tau protein were examined for their phosphorylation levels compared to total tau protein content using Western blots (FIG. 4A). Tau, phosphorylated at these three sites, is a constituent of NFTs.

[5] = read-out: Percent Inhibition, 1 μM compound (n = 5)
[6] = read-out: Percent inhibition of FITC-NLX binding, 1 μM compound, 10 nM FITC-NLX
[7] = read-out: inhibition of binding of FITC-labeled NLX, 1 μM compound, 10 nM FITC-NLX, n=5, FIG. 11
[8] = read-out: inhibition of binding of FITC-labeled NLX

Chain of kappa-opioid receptor (P41145 whole entry): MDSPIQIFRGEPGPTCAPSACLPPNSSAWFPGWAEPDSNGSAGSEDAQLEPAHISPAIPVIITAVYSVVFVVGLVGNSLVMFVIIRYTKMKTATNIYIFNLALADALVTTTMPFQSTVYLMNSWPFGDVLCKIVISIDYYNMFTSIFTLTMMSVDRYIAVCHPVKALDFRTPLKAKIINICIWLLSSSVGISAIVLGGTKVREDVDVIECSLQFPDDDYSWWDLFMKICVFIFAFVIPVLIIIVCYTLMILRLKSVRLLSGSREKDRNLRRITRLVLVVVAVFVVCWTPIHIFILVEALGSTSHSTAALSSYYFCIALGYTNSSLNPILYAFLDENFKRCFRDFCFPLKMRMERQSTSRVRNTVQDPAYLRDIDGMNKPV
T2 sequence (P21333 whole entry): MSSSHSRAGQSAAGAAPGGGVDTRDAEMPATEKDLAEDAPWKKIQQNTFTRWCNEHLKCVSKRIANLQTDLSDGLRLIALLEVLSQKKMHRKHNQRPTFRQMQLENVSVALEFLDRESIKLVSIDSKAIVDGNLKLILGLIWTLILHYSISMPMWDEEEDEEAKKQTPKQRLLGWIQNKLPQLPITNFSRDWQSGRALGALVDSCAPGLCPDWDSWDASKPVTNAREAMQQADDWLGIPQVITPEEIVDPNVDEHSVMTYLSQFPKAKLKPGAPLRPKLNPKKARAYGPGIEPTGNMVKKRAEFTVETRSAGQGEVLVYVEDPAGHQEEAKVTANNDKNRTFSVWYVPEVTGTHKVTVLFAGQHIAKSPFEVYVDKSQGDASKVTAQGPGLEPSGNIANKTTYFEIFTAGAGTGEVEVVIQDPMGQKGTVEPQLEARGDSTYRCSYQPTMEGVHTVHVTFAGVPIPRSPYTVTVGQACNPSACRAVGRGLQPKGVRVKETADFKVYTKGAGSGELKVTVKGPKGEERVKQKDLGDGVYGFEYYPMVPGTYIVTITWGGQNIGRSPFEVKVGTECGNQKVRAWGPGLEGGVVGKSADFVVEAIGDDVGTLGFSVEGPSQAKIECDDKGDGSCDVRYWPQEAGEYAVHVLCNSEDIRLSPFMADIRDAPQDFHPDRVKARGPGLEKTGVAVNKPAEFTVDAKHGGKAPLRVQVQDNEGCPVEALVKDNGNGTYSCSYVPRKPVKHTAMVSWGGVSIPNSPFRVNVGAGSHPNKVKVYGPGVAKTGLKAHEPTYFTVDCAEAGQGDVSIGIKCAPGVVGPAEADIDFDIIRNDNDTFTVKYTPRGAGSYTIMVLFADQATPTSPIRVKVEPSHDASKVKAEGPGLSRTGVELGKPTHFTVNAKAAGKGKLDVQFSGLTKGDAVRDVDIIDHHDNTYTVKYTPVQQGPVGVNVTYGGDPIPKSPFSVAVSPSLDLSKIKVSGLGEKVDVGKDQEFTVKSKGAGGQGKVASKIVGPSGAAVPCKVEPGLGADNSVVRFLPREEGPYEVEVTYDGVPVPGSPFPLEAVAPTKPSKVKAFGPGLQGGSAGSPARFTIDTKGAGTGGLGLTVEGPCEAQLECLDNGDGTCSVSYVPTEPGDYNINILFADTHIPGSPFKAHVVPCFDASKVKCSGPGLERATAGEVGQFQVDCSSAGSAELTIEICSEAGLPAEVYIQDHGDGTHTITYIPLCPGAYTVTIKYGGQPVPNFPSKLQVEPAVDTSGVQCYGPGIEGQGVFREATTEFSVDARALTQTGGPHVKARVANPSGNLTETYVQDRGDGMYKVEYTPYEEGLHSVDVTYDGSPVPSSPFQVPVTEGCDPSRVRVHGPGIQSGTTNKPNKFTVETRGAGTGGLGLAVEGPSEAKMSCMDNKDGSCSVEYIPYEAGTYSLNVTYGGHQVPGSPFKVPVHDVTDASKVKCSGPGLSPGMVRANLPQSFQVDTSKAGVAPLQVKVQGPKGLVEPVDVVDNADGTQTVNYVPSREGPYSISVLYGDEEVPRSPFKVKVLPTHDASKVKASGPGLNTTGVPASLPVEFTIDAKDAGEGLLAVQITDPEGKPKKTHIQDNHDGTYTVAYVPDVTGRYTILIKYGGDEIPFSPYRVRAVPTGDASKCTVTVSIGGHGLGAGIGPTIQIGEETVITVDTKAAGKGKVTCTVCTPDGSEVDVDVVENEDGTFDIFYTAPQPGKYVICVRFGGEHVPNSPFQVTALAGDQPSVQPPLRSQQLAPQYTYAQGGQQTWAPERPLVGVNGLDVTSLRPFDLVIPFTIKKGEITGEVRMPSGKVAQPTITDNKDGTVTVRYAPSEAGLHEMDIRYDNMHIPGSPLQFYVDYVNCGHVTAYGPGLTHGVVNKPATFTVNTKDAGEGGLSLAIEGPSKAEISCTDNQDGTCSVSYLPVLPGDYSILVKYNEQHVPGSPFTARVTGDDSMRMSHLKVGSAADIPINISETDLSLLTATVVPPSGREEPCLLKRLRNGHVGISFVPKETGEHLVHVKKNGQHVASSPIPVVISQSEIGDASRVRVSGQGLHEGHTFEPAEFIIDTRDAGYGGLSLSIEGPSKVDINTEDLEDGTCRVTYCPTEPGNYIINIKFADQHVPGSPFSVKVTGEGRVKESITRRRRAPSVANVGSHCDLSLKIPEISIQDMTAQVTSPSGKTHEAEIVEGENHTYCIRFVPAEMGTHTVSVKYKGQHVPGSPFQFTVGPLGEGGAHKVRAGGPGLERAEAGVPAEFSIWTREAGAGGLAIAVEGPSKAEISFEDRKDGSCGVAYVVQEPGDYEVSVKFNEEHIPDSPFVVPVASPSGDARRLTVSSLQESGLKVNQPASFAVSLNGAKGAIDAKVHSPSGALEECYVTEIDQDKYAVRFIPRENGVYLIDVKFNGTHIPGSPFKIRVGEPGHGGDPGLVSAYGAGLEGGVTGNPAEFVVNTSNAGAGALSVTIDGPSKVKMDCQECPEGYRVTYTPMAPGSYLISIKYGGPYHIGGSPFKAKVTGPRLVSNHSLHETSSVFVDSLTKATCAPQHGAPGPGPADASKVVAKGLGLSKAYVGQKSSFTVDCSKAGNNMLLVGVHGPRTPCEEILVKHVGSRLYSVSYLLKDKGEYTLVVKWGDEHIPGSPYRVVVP
Chain of delta-opioid receptor (P41143 whole entry): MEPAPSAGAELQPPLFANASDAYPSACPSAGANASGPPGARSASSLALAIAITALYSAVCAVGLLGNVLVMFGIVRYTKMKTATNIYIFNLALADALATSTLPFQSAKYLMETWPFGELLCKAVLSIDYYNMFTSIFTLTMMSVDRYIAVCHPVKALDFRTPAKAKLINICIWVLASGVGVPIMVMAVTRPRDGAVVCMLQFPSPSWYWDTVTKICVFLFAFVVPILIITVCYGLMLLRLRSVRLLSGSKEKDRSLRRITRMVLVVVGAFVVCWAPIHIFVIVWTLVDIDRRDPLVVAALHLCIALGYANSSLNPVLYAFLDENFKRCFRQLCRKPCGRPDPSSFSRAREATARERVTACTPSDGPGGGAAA
Chain of mu opioid receptor (MOR) (P35372 whole entry, species assumed): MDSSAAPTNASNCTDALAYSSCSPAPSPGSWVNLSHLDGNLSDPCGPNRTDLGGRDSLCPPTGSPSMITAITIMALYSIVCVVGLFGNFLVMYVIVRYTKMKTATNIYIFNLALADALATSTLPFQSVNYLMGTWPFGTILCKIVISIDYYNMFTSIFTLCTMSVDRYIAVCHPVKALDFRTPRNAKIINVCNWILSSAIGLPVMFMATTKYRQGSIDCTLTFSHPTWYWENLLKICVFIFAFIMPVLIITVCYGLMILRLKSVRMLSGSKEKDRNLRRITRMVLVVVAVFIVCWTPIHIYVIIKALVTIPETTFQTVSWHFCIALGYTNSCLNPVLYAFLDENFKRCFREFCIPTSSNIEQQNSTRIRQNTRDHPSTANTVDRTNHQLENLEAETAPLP

Oc1ccc2c3c1O[C@H]1[C@H](O)CC[C@@]4(O)[C@@H](C2)N(CC2CC2)CC[C@]314 [6-β-Naltrexol]
Percent Inhibition ([1]; 1 µM): 50.5%
Percent Inhibition ([1]; 10 µM): 64.8%

Oc1ccc2c(c1)[C@@]13CCCC[C@@]1(O)[C@@H](C2)N(CC1CCC1)CC3 [Butorphanol]
RECEPTOR KAPPA: antagonism/agonism and relative potency (kappa-opioid receptor): +++

COc1c2c(cc3c1C(CC(=O)Cc1ccccc1F)[N+](C)(C)CC3)OCO2 (stereo not drawn) [Compound B0055]
α7nAChR-FLNA association (α7nAChR-FLNA complex): markedly reduced
Aβ42-induced ERK2 activation (pERK2) (ERK2): suppressed; also recorded: reduced the activation at both concentrations

CN1CC[C@]23CCCC[C@H]2[C@H]1Cc1ccc(O)cc13 [Levorphanol]
inhibition at 1 µM ([1]; read-out: Percent Inhibition): 46.8%
inhibition at 10 µM ([1]; read-out: Percent Inhibition): 69.4%

Oc1ccc2c3c1O[C@H]1[C@@H](O)CC[C@@]4(O)[C@@H](C2)N(CC2CCC2)CC[C@]314 [Nalbuphine]
binding to the FLNA pentapeptide of SEQ ID NO: 1 (in words) [1]: bind well
inhibition at 1 µM ([1]; read-out: Percent Inhibition): 65.4%
inhibition at 10 µM ([1]; read-out: Percent Inhibition): 76.2%

C=C1CC[C@@]2(O)[C@H]3Cc4ccc(O)c5c4[C@@]2(CCN3CC2CC2)[C@H]1O5 [Nalmefene]
inhibition at 1 µM ([1]; read-out: Percent Inhibition): 44.5%
inhibition at 10 µM ([1]; read-out: Percent Inhibition): 66.9%

C=CCN1CC[C@]23c4c5ccc(O)c4O[C@H]2[C@@H](O)C=C[C@H]3[C@H]1C5 [Nalorphine]
binding to the FLNA pentapeptide of SEQ ID NO: 1 (in words) [1]: bind well
inhibition at 1 µM ([1]; read-out: Percent Inhibition): 58.7%
inhibition at 10 µM ([1]; read-out: Percent Inhibition): 60.2%
RECEPTOR KAPPA: antagonism/agonism and relative potency (kappa-opioid receptor): +

C=CCN1CC[C@]23c4c5ccc(O)c4O[C@H]2/C(=N/NC(=O)c2ccccc2)CC[C@@]3(O)[C@H]1C5 [Naloxone Benzoylhydrazone]
RECEPTOR DELTA: antagonism/agonism and relative potency (delta-opioid receptor): −
RECEPTOR KAPPA: antagonism/agonism and relative potency (kappa-opioid receptor): −

C=CCN1CC[C@]23c4c5ccc(O)c4O[C@H]2C(=O)CC[C@@]3(O)[C@H]1C5 [Naloxone]
binding to the FLNA pentapeptide of SEQ ID NO: 1 (in words) [1]: bind well
Percent inhibition of FITC-NLX binding ([1]; 0.01 μM compound, 10 nM FITC-NLX, listed as (−)NLX): 41.9% and 34.3% and 41.4% and 42.50%
Percent inhibition of FITC-NLX binding ([1]; 0.1 μM compound, 10 nM FITC-NLX, listed as (−)NLX): 48.6% and 38.5% and 47.2% and 54.20%
Percent inhibition of FITC-NLX binding ([1]; 1 μM compound, 10 nM FITC-NLX, listed as (−)NLX): 51.5% and 45.8% and 50.2% and 56.20%
inhibition at 1 µM [1, 5]: 71.6%
inhibition at 0.01 µM ([1]; 10 nM FITC-NLX): 43%
inhibition at 0.1 µM ([1]; 10 nM FITC-NLX): 50.3%
inhibition at 1 µM [1, 6]: 53.9%
inhibition at 1 µM [1, 7]: ~75%

O=C1CC[C@@]2(O)[C@H]3Cc4ccc(O)c5c4[C@@]2(CCN3CC2CC2)[C@H]1O5 [Naltrexone]
binding to the FLNA pentapeptide of SEQ ID NO: 1 (in words) [1]: bind well
Percent inhibition of FITC-NLX binding ([1]; 0.01 μM compound, 10 nM FITC-NLX, listed as NTX): 37.9% and 34.8% and 38.5%
Percent inhibition of FITC-NLX binding ([1]; 0.1 μM compound, 10 nM FITC-NLX, listed as NTX): 46.5% and 45.2% and 43.3%
Percent inhibition of FITC-NLX binding ([1]; 1 μM compound, 10 nM FITC-NLX, listed as NTX): 55.4% and 51.6% and 48.0%
inhibition at 1 µM [1, 5]: 76.4%
inhibition at 0.01 µM ([1]; 10 nM FITC-NLX): 40.2%
inhibition at 0.1 µM ([1]; 10 nM FITC-NLX): 47.4%
inhibition at 1 µM [1, 6]: 49.1%
inhibition at 1 µM [1, 7]: ~75%
IC50 (FLNA [2]; IC50-L (low)): 0.834 nM
IC50 (FLNA [2]; read-out: IC50-H (high)): 0.00394 nM
affinity difference between the high- and low-affinity binding sites (FLNA [2]; [3H]NLX label): about 200 fold
IC50 (FLNA [3]; read-out: IC50-H (high)): 0.00163 nM
IC50 (FLNA [3]; read-out: IC50-L (low)): 18.8 nM
affinity difference between the high- and low-affinity binding sites (FLNA [3]; FITC-NLX label): ~12.000 fold
IC50 (FLNA [4]; read-out: IC50-H (high affinity site)): 0.00394 nM
IC50 (FLNA [4]; read-out: IC50-L (lower affinity site)): 0.834 nM

Oc1ccc2c3c1O[C@H]1c4[nH]c5ccccc5c4C[C@@]4(O)[C@@H](C2)N(CC2CC2)CC[C@]314 [Naltrindole]
inhibition at 1 µM ([1]; read-out: Percent Inhibition): 41%
inhibition at 10 µM ([1]; read-out: Percent Inhibition): 65%
RECEPTOR MU: antagonism/agonism and relative potency (mu opioid receptor (MOR)): −
RECEPTOR KAPPA: antagonism/agonism and relative potency (kappa-opioid receptor): −

CN1CC[C@]23c4c5ccc(O)c4O[C@H]2[C@@H](O)C=C[C@H]3[C@H]1C5 [morphine]
binding to the FLNA pentapeptide of SEQ ID NO: 1 (in words) [1]: do not bind well
inhibition at 10 µM [1, 8]: 25 to 50%

Oc1ccc2c3c1O[C@H]1c4[nH]c5c(c4C[C@@]4(O)C(C2)N(CC2CC2)CC[C@]314)C[C@@]1(O)[C@H]2Cc3ccc(O)c4c3[C@@]1(CCN2CC1CC1)[C@H]5O4 [nor-Binaltrophimine]
RECEPTOR DELTA: antagonism/agonism and relative potency (delta-opioid receptor): −

COc1ccc2c3c1O[C@H]1C(=O)CC[C@@]4(O)[C@@H](C2)N(C)CC[C@]314 [oxycodone]
binding to the FLNA pentapeptide of SEQ ID NO: 1 (in words) [1]: do not bind well
inhibition at 10 µM [1, 8]: 25 to 50%

COC(=O)/C=C/C(=O)N[C@@H]1CC[C@@]2(O)[C@H]3Cc4ccc(O)c5c4[C@@]2(CCN3CC2CC2)[C@H]1O5 [β-Funaltrexamine]
Percent Inhibition ([1]; 1 µM): 49.8%
Percent Inhibition ([1]; 10 µM): 69.4%

(+)-naloxone [(+)NLX]
α7nAChR-FLNA association (α7nAChR-FLNA complex): markedly reduced
Aβ42-induced ERK2 activation (pERK2) (ERK2): suppressed
Aβ42-induced ERK2 activation (pERK2) (ERK2; listed as (+)-naloxone): reduced the activation at both concentrations
Aβ42-induced hyperphosphorylation of tau at all three sites (tau protein; FIG. 4D, timing not specified): particularly decreased
Aβ42-induced tau phosphorylation at S202, T231 and T181 (tau protein; simultaneous administration, both concentrations): reduced tau phosphorylation
